Consider seven compounds from PubChem BioAssay AID330 (DTP/NCI, 2004).

“And” between values parts separate entries of the source, which are not always exact repeats. Equal values may be shown once. Toxic doses and inconclusive results are not listed.

The experiment relates to P388 leukemia ip, CD2F1 mice, survival T/C. The experiment can be described thus: NCI In Vivo Anticancer Drug Screen. Data for tumor model P388 Leukemia (intraperitoneal) in CD2F1 (CDF1) mice. The conditions noted are these: endpoint: median survival time, higher = longer survival. The essentials: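 Mice carrying the transplanted tumor received test compound or vehicle. Survival was recorded in each group, and the value is the treated-group measurement divided by that of the vehicle-treated control group.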

Where [1] appears, read: dose: 50.0 mg/kg/injection, schedule: Q01DX009 (ip), vehicle: saline with Tween-80.
The mark [2] stands for this setting: dose: 100.0 mg/kg/injection, schedule: Q01DX009 (ip), vehicle: saline with Tween-80.
The mark [3] stands for this setting: dose: 200.0 mg/kg/injection, schedule: Q01DX009 (ip), vehicle: saline with Tween-80.

For `COc1cc(N=Nc2cc(CN(C)C)cc3ncccc23)c(OC)cc1N=Nc1ccc([N+](=O)[O-])cc1`, the T/C reads like this: (dose: 12.5 mg/kg/injection, schedule: Q01DX005 (ip), vehicle: saline with Tween-80) 98 % of control; (dose: 12.5 mg/kg/injection, schedule: Q01DX009 (ip), vehicle: Klucel (hydroxypropylcellulose) (HPC)) 93 % of control; (dose: 25.0 mg/kg/injection, schedule: Q01DX005 (ip), vehicle: saline with Tween-80) 109 % of control; (dose: 25.0 mg/kg/injection, schedule: Q01DX009 (ip), vehicle: Klucel (hydroxypropylcellulose) (HPC)) 91 % of control; (dose: 38.25 mg/kg/injection, schedule: Q01DX009 (ip), vehicle: Klucel (hydroxypropylcellulose) (HPC)) 102 % of control; (dose: 50.0 mg/kg/injection, schedule: Q01DX005 (ip), vehicle: saline with Tween-80) 100 % of control. Also, the T/C reads like this: (dose: 50.0 mg/kg/injection, schedule: Q01DX009 (ip), vehicle: Klucel (hydroxypropylcellulose) (HPC)) 120 % of control and 93 % of control; (dose: 76.5 mg/kg/injection, schedule: Q01DX009 (ip), vehicle: Klucel (hydroxypropylcellulose) (HPC)) 94 % of control; (dose: 100.0 mg/kg/injection, schedule: Q01DX005 (ip), vehicle: saline with Tween-80) 107 % of control; (dose: 100.0 mg/kg/injection, schedule: Q01DX009 (ip), vehicle: Klucel (hydroxypropylcellulose) (HPC)) 99 % of control and 115 % of control and 95 % of control; (dose: 153.0 mg/kg/injection, schedule: Q01DX009 (ip), vehicle: Klucel (hydroxypropylcellulose) (HPC)) 95 % of control; (dose: 200.0 mg/kg/injection, schedule: Q01DX005 (ip), vehicle: saline with Tween-80) 107 % of control. Moreover, the T/C (dose: 200.0 mg/kg/injection, schedule: Q01DX009 (ip), vehicle: Klucel (hydroxypropylcellulose) (HPC)) is 108 % of control and 93 % of control; the T/C (dose: 306.0 mg/kg/injection, schedule: Q01DX009 (ip), vehicle: Klucel (hydroxypropylcellulose) (HPC)) was 110 % of control; the T/C (dose: 400.0 mg/kg/injection, schedule: Q01DX005 (ip), vehicle: saline with Tween-80) was 109 % of control; the T/C (dose: 400.0 mg/kg/injection, schedule: Q01DX009 (ip), vehicle: Klucel (hydroxypropylcellulose) (HPC)) is 102 % of control and 94 % of control.

`Cc1ccnc(N)c1N`: the T/C is, setting by setting: (dose: 3.13 mg/kg/injection, schedule: Q01DX009 (ip), vehicle: other) 89 % of control; (dose: 6.25 mg/kg/injection, schedule: Q01DX009 (ip), vehicle: other) 96 % of control; (dose: 12.5 mg/kg/injection, schedule: Q01DX009 (ip), vehicle: other) 109 % of control.

With `CN(C)c1ccc(/C=C/c2ccc(Br)cc2)cc1`, the T/C runs as follows: under setting [1], 89 % of control; under setting [2], 88 % of control; under setting [3], 89 % of control.

For the compound `CNC(=O)Oc1ccc(C2CCCCC2)cc1`, the T/C by setting is: under setting [1], 107 % of control; under setting [2], 107 % of control; under setting [3], 88 % of control.

Turning to `COc1cccc2c1C(=O)c1c(O)c3c(c(O)c1C2=O)C[C@@](O)(C(=O)CO)C[C@@H]3OC1CC(OC(C)=O)C(OC(C)=O)C(C)O1` (some centres not stated), the T/C (dose: 3.13 mg/kg/injection, schedule: Q04DX003 (ip), vehicle: distilled water + Tween-80) was 99 % of control and 123 % of control; the T/C (dose: 6.25 mg/kg/injection, schedule: Q04DX003 (ip), vehicle: distilled water + Tween-80) was 123 % of control; the T/C (dose: 12.5 mg/kg/injection, schedule: Q04DX003 (ip), vehicle: distilled water + Tween-80) is 163 % of control; the T/C (dose: 25.0 mg/kg/injection, schedule: Q04DX003 (ip), vehicle: distilled water + Tween-80) is 185 % of control and 192 % of control; the T/C (dose: 50.0 mg/kg/injection, schedule: Q04DX003 (ip), vehicle: distilled water + Tween-80) is 211 % of control and 269 % of control.

Turning to `CN(C)[C](=[Au][Cl])c1ccccc1`, the T/C (dose: 25.0 mg/kg/injection, schedule: Q04DX002 (ip), vehicle: Klucel (hydroxypropylcellulose) (HPC)) was 109 % of control; the T/C (dose: 50.0 mg/kg/injection, schedule: Q04DX002 (ip), vehicle: Klucel (hydroxypropylcellulose) (HPC)) is 111 % of control; the T/C (dose: 100.0 mg/kg/injection, schedule: Q04DX002 (ip), vehicle: Klucel (hydroxypropylcellulose) (HPC)) was 108 % of control and 96 % of control.

Consider `COc1cc(CBr)ccc1OCc1ccccc1`, for which the T/C is 111 % of control (dose: 12.5 mg/kg/injection, schedule: Q01DX009 (ip), vehicle: distilled water + Tween-80); 101 % of control (dose: 25.0 mg/kg/injection, schedule: Q01DX009 (ip), vehicle: distilled water + Tween-80); 108 % of control (dose: 50.0 mg/kg/injection, schedule: Q01DX009 (ip), vehicle: distilled water + Tween-80); 108 % of control (dose: 100.0 mg/kg/injection, schedule: Q01DX009 (ip), vehicle: distilled water + Tween-80).
